“Also recorded” adds a separate entry of the source. Ends that are not written are not given here.
Key:
[1] = Hemodynamic effects in rats without prior Lovenox; details: 2 mg per rat, no Lovenox
[2] = system: anti-Factor Xa Activity of Unfractionated Heparin; assay: Anti-Factor Xa assay: neutralization of unfractionated heparin in citrate or plasma in vitro; type: biochemical, human; details: UFH 0.7 U/ml
Summary of the method: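 Chromogenic anti-Factor Xa kit run with UFH, enoxaparin (Lovenox) or danaparoid (Orgaran) in 0.32% citrate or citrated plasma from three volunteers. Heparin/ATIII complex formed, peptide added, then Factor Xa and dye substrate; absorbance at 405 nm, inversely proportional to remaining anti-Factor Xa activity.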

[3] = system: platelets; assay: Platelet aggregation with aggregation-inducing agents; type: cell-based, human; details: 12 μg/ml; Lovenox 0.5 U/ml; collagen, ADP, ristocetin, epinephrine, SFFLRN, A23187
Summary of the method: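 Plasma from six donors, platelets equilibrated 1 min before agonist (collagen, ADP, ristocetin, epinephrine, SFFLRN, A23187; several concentrations each). Heparin-binding peptides at 12 μg/ml, Lovenox at 0.5 U/ml, protamine also tested. Percent aggregation monitored over 5 min.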

[4] = Hemodynamic effects in rats after administration of the LMWH Lovenox; details: in the presence of LMWH Lovenox
Method: Next, experiments were performed in which the animals were treated with the peptides after the administration of the LMWH Lovenox®, as would happen in the clinical situation, because binding of peptides to LMWH would be expected to reduce the effects of the peptides on hemodynamic function.

[5] = system: unfractionated heparin (thrombin-induced clot formation); assay: Thrombin neutralization assay: clotting time of citrated plasma in the presence of unfractionated heparin; type: biochemical, human; details: UFH 0.5 IU/ml
Method: It was determined whether heparin-binding peptides of the invention can neutralize unfractionated heparin using the thrombin neutralization assay. The six peptides that were synthesized and used in this Example are: (ARKKAAKA)3VLVLVLVL (SEQ ID NO:5); (ARKKAAKA)(A16)(ARKKAAKA) (SEQ ID NO:30); (ARKKAAKA)4 (SEQ ID NO:31); (AKKARA)6 (SEQ ID NO:32); (ARKKAAKA)3(ARKKCAKA) (SEQ ID NO:33); and cyclized C(ARKKAAKA)4C (SEQ ID NO:34); Citrated plasma was pipetted into a glass tube. Thrombin was added, the tube was manually rotated, and clotting time was determined by observation of clot formation. Normal clotting time is 19-22 seconds.
As a control, to assess the effect of heparin on clot formation, unfractionated heparin was added to the plasma at 0.5 IU anti-thrombin activity/ml and then thrombin was added. Clotting time in the presence of heparin alone was greater than 3 minutes.
To test the effect of peptides, heparin and six peptides at the concentrations indicated in Table 4 were added to the plasma, the mixture was allowed to stand at room temperature for 1 minute, and thrombin was added. The time for the clot to form is indicated. Experiments were performed using plasma from three volunteers—A, B, and C.

[6] = system: Anti-Factor Xa Activity of the Non-Heparin Glycosaminoglycan Orgaran ®; assay: Anti-Factor Xa assay: neutralization of Orgaran in citrate or plasma in vitro; type: biochemical, human
Method: The ability of peptides such as (ARKKAAKA)3VLVLVLVL (SEQ ID NO:5) to neutralize the anti-Factor Xa activity of UFH and LMWH in vitro was tested using the Stachrom Heparin kit (Diagnostica Stago), a standard hematology laboratory assay used to measure the anti-Factor Xa activity of heparin. The assay was performed using the low molecular weight heparin enoxaparin sodium (Lovenox®, Aventis Pharmaceuticals, Inc.), unfractionated heparin (UFH), or the non-heparin glycosaminoglycan danaparoid sodium (Orgaran®, Organon Inc., West Orange, N.J.) in 0.32% citrate or in plasma anticoagulated with 0.32% citrate. Enoxaparin is commonly used clinically as a low molecular weight heparin (LMWH). Danaparoid is commonly used clinically as a non-heparin glycosaminoglycan anticoagulant. Currently, the only FDA approved drug to target UFH is protamine, which is not effective in vivo against LMWH or a non-heparin glycosaminoglycan such as danaparoid. Buffer and ATIII are added to form the heparin/ATIII complex, peptide is added, then Factor Xa, reporter dye substrate for Factor Xa activity, and stop solution, and the dye concentration is read at 405 nm. The absorbance of the dye increases with increasing Factor Xa activity, and thus is inversely proportional to the heparin (anti-Factor Xa activity) concentration. Peptides were tested in plasma obtained from three volunteers (A, B, and C). Platelet function inhibitors PG12 and theophylline were added to the blood immediately upon collection. […]

## ARKKAAKAARKKAAKAARKKAAKAARKKAAKA [(ARKKAAKA)4]
[1]
  time to nadir of blood pressure: 2 min
[2]; 1 μg/ml Peptide, A Plasma
  Unfractionated Heparin Neutralized: 0.069 ± 0.023 U/ml
[2]; 1 μg/ml Peptide, B Plasma
  Unfractionated Heparin Neutralized: 0.124 ± 0.047 U/ml
[2]; 1 μg/ml Peptide, C Plasma
  Unfractionated Heparin Neutralized: 0.076 ± 0.014 U/ml
[2]; 1 μg/ml Peptide, Citrate
  Unfractionated Heparin Neutralized: 0.056 ± 0.019 U/ml
[2]; 6 μg/ml Peptide, A Plasma
  Unfractionated Heparin Neutralized: 0.334 ± 0.016 U/ml
[2]; 6 μg/ml Peptide, B Plasma
  Unfractionated Heparin Neutralized: 0.361 ± 0.038 U/ml
[2]; 6 μg/ml Peptide, C Plasma
  Unfractionated Heparin Neutralized: 0.397 ± 0.004 U/ml
[2]; 6 μg/ml Peptide, Citrate
  Unfractionated Heparin Neutralized: 0.423 ± 0.014 U/ml
[2]; 12 μg/ml Peptide, A Plasma
  Unfractionated Heparin Neutralized: 0.412 ± 0.010 U/ml
[2]; 12 μg/ml Peptide, B Plasma
  Unfractionated Heparin Neutralized: 0.395 ± 0.012 U/ml
[2]; 12 μg/ml Peptide, C Plasma
  Unfractionated Heparin Neutralized: 0.396 ± 0.018 U/ml
[2]; 12 μg/ml Peptide, Citrate
  Unfractionated Heparin Neutralized: 0.370 ± 0.020 U/ml
[2]; 60 μg/ml Peptide, A Plasma
  Unfractionated Heparin Neutralized: 0.389 ± 0.018 U/ml
[2]; 60 μg/ml Peptide, B Plasma
  Unfractionated Heparin Neutralized: 0.442 ± 0.056 U/ml
[2]; 60 μg/ml Peptide, C Plasma
  Unfractionated Heparin Neutralized: 0.401 ± 0.012 U/ml
[2]; 60 μg/ml Peptide, Citrate
  Unfractionated Heparin Neutralized: 0.378 ± 0.023 U/ml
[2]; 120 μg/ml Peptide, A Plasma
  Unfractionated Heparin Neutralized: 0.364 ± 0.032 U/ml
[2]; 120 μg/ml Peptide, B Plasma
  Unfractionated Heparin Neutralized: 0.392 ± 0.075 U/ml
[2]; 120 μg/ml Peptide, C Plasma
  Unfractionated Heparin Neutralized: 0.374 ± 0.020 U/ml
[2]; 120 μg/ml Peptide, Citrate
  Unfractionated Heparin Neutralized: 0.361 ± 0.028 U/ml
[3]
  effect on platelet aggregation: no significant inhibition or enhancement of aggregation
[4]
  effect on blood pressure and heart rate / toxicity: no significant effect on blood pressure and heart rate; also recorded: All four rats tested showed no response
[5]; 0.30 μg peptide/0.1 ml, plasma A
  Time for clot formation: 56.33 ± 4.92 s
[5]; 0.30 μg peptide/0.1 ml, plasma B
  Time for clot formation: 53.33 ± 1.25 s
[5]; 0.35 μg peptide/0.1 ml, plasma A
  Time for clot formation: 22.33 ± 0.47 s
[5]; 0.35 μg peptide/0.1 ml, plasma B
  Time for clot formation: 39.00 ± 5.35 s
[5]; 0.35 μg peptide/0.1 ml, plasma C
  Time for clot formation: 32.67 ± 0.47 s
[5]; 0.40 μg peptide/0.1 ml, plasma A
  Time for clot formation: 18.67 ± 0.94 s
[5]; 0.40 μg peptide/0.1 ml, plasma B
  Time for clot formation: 26.30 ± 1.25 s
[5]; 0.40 μg peptide/0.1 ml, plasma C
  Time for clot formation: 22.67 ± 1.25 s
[5]; 0.50 μg peptide/0.1 ml, plasma A
  Time for clot formation: 19.67 ± 1.25 s
[5]; 0.50 μg peptide/0.1 ml, plasma B
  Time for clot formation: 24.00 ± 0.82 s
[5]; 0.50 μg peptide/0.1 ml, plasma C
  Time for clot formation: 20.67 ± 0.94 s
[6]; 1 μg/ml Peptide, A Plasma
  Orgaran Neutralized: 0.026 ± 0.021 U/ml
[6]; 1 μg/ml Peptide, B Plasma
  Orgaran Neutralized: 0.025 ± 0.009 U/ml
[6]; 1 μg/ml Peptide, C Plasma
  Orgaran Neutralized: 0.020 ± 0.012 U/ml
[6]; 1 μg/ml Peptide, Citrate
  Orgaran Neutralized: 0.021 ± 0.022 U/ml
[6]; 6 μg/ml Peptide, A Plasma
  Orgaran Neutralized: 0.061 ± 0.006 U/ml
[6]; 6 μg/ml Peptide, B Plasma
  Orgaran Neutralized: 0.057 ± 0.022 U/ml
[6]; 6 μg/ml Peptide, C Plasma
  Orgaran Neutralized: 0.074 ± 0.056 U/ml
[6]; 6 μg/ml Peptide, Citrate
  Orgaran Neutralized: 0.172 ± 0.028 U/ml
[6]; 12 μg/ml Peptide, A Plasma
  Orgaran Neutralized: 0.082 ± 0.012 U/ml
[6]; 12 μg/ml Peptide, B Plasma
  Orgaran Neutralized: 0.110 ± 0.021 U/ml
[6]; 12 μg/ml Peptide, C Plasma
  Orgaran Neutralized: 0.116 ± 0.021 U/ml
[6]; 12 μg/ml Peptide, Citrate
  Orgaran Neutralized: 0.178 ± 0.021 U/ml
[6]; 60 μg/ml Peptide, A Plasma
  Orgaran Neutralized: 0.211 ± 0.029 U/ml
[6]; 60 μg/ml Peptide, B Plasma
  Orgaran Neutralized: 0.192 ± 0.009 U/ml
[6]; 60 μg/ml Peptide, C Plasma
  Orgaran Neutralized: 0.182 ± 0.006 U/ml
[6]; 60 μg/ml Peptide, Citrate
  Orgaran Neutralized: 0.298 ± 0.044 U/ml
[6]; 120 μg/ml Peptide, A Plasma
  Orgaran Neutralized: 0.286 ± 0.040 U/ml
[6]; 120 μg/ml Peptide, B Plasma
  Orgaran Neutralized: 0.302 ± 0.012 U/ml
[6]; 120 μg/ml Peptide, C Plasma
  Orgaran Neutralized: 0.299 ± 0.024 U/ml
[6]; 120 μg/ml Peptide, Citrate
  Orgaran Neutralized: 0.366 ± 0.019 U/ml
